This test addresses T1, NLRP3 inflammasome (Homo sapiens, UniProt Q96P20).
T1 construct: endogenous in cells; host or cells: THP-1 cells (PMA-differentiated, stimulated with LPS and ATP)
The test is described as follows: THP-1 IL-1β production inhibition test. In kind it is cell-based. To be noted: PMA-treated THP-1 cells, LPS 50 ng/mL + ATP 5 mM, 2 hours, IL-1β in supernatant by ELISA. The method, then: PMA (phorbol myristate acetate, SIGMA, P1585) was added to THP-1 cells in an amount of 50 ng/mL to culture the cells for 2 days at 37° C. […] LPS (Lipopolysaccharide, SIMGA, L2880) and ATP (Adenosine triphosphate, SIGMA, A2383) were added so that final concentrations become 50 ng/mL and 5 mM, respectively, followed by culturing at 37° C. for 2 hours. The supernatants were collected to measure the concentrations of IL-1β by ELISA (DuoSet ELISA human IL-1β, R&D Systems, DY201). The IL-1β concentrations were plotted against log concentrations of test compounds, and an IC50 value was calculated by sigmoid Emax model nonlinear regression analysis.
(An ELISA detects its analyte on a solid surface through an enzyme-linked reagent.)

Structures are written as SMILES. Structures can show the parent of a compound that is named as a salt.

One may read the IC50 as the concentration needed to halve the response being measured.

T1 sequence (Q96P20 whole entry): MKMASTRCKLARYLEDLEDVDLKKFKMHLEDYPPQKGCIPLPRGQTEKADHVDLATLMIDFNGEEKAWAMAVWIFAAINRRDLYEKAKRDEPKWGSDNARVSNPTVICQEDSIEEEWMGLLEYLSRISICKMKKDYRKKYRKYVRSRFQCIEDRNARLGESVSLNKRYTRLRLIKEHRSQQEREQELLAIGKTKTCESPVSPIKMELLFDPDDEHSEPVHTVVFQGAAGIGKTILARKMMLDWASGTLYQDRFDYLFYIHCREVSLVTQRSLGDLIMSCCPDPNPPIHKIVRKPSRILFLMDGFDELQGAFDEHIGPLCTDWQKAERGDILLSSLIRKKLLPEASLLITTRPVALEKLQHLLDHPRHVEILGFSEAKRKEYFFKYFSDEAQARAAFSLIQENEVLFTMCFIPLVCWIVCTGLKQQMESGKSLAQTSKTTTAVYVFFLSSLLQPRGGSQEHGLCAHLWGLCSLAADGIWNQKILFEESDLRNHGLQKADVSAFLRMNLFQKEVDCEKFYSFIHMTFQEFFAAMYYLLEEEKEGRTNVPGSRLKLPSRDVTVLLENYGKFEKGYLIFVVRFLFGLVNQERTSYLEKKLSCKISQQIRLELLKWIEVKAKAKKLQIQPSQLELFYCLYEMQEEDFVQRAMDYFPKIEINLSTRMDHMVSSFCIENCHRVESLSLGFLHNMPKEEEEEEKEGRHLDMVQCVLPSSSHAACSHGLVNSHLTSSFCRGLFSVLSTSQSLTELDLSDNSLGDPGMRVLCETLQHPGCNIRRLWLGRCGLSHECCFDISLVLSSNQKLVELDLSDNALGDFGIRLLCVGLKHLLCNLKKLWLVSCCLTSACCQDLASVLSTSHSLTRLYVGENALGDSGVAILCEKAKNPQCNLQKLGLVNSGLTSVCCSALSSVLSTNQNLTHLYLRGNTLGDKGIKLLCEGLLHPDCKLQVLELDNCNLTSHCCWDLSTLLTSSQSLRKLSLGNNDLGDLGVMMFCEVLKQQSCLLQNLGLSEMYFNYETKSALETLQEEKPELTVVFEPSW

With `CC1(C)SCc2c(N[C@@H]3CCCN(CC(F)F)C3)nnc(-c3ccc(C(F)(F)F)cc3O)c21` [Example 132, 2-(4-{[(3R)-1-(2,2-difluoroethyl)piperidin-3-yl]amino}-7,7-dimethyl-5,7-dihydrothieno[3,4-d]pyridazin-1-yl)-5-(trifluoromethyl)phenol], the IC50 was determined as 95 nM. `CN1CCc2c(N[C@@H]3CCCC[C@H]3O)nnc(-c3ccc(C(F)(F)F)cc3O)c2C1` [Example 75]: the half-maximal inhibitory concentration (IC50) came to 54 nM. In the case of `Oc1cc(C(F)(F)F)ccc1-c1nnc(N[C@@H]2CCCC[C@H]2O)c2c1CSCC2` [Example 102], the 50% inhibitory concentration (IC50) amounted to 5.1 nM. Consider `Oc1cc(OC(F)(F)F)ccc1-c1nnc(N[C@@H]2CCOC[C@H]2O)c2c1CCCCC2` [Example 45], for which the IC50 worked out at 14 nM.

In the case of `Oc1cc(C(F)(F)F)ccc1-c1nnc(N[C@@H]2CCCC[C@H]2O)c2c1CNC2` [Example 98, 2-(4-{[(1R,2R)-2-hydroxycyclohexyl]amino}-6,7-dihydro-5H-pyrrolo[3,4-d]pyridazin-1-yl)-5-(trifluoromethyl)phenol], the IC50 came out at 95 nM.

With `Oc1ccccc1-c1nnc(N[C@@H]2CCCC[C@H]2O)c2c1CCOC2` [Example 61], the IC50 turned out to be 96 nM. Consider `Oc1cc(C(F)(F)F)ccc1-c1nnc(N[C@H]2CCCC[C@@H]2O)c2c1CCOC2` [66(2)], for which the half-maximal inhibitory concentration (IC50) was found to be 180 nM.

Regarding `Oc1cc(C(F)(F)F)c(F)cc1-c1nnc(N[C@@H]2CCCC[C@H]2O)c2c1CCCC2` [Example 85], the IC50 stood at 58 nM. For the compound `COc1ccc(-c2nnc(NCCCO)c3c2CCCC3)cc1` [Example 7], the IC50 was 8500 nM. For the compound `CC(=O)N1CCC[C@@H](Nc2nnc(-c3ccc(C(F)(F)F)cc3O)c3ccccc23)C1` [Example 63], the half-inhibitory concentration (IC50) was determined as 9.4 nM. On to `CC(=O)N1CCc2c(-c3ccc(C(F)(F)F)cc3C(F)(F)F)nnc(NC[C@@H](C)O)c2C1` [Example 79, 1-{1-[2,4-bis(trifluoromethyl)phenyl]-4-{[(2R)-2-hydroxypropyl]amino}-7,8-dihydropyrido[3,4-d]pyridazin-6(5H)-yl}ethan-1-one], for which the IC50 is 4800 nM. `Oc1cc(OC(F)(F)F)ccc1-c1nnc(N[C@@H]2CCCC[C@H]2O)c2c1CCCC2` [Example 27]: the IC50 was determined as 4.1 nM.

Turning to `C[C@]1(O)C[C@@H](Nc2nnc(-c3ccc(C(F)(F)F)cc3O)c3c2CCC3)C1` [Example 59], the IC50 came to 40 nM. On to `Oc1cc(C(F)(F)F)ccc1-c1nnc(N[C@@H]2CCCC[C@H]2O)c2c1CCNC2` [Example 90, 2-(4-{[(1R,2R)-2-hydroxycyclohexyl]amino}-5,6,7,8-tetrahydropyrido[3,4-d]pyridazin-1-yl)-5-(trifluoromethyl)phenol dihydrochloride], for which the IC50 was 12 nM. For the compound `Oc1cc(C(F)(F)F)ccc1-c1nnc(N[C@@H]2CCOC[C@H]2O)c2c1COCC2` [101(2)], the IC50 was 8.6 nM. Then `CC(=O)N1Cc2c(N[C@@H]3CCCC[C@H]3O)nnc(-c3ccc(C(F)(F)F)cc3O)c2C1` [Example 117, 1-(1-{[(1R,2R)-2-hydroxycyclohexyl]amino}-4-[2-hydroxy-4-(trifluoromethyl)phenyl]-5,7-dihydro-6H-pyrrolo[3,4-d]pyridazin-6-yl)ethan-1-one], with 130 nM; and `Oc1cc(C(F)(F)F)ccc1-c1nnc(N[C@@H]2CCCC[C@H]2O)c2sccc12` [Example 94, 2-(7-{[(1R,2R)-2-hydroxycyclohexyl]amino}thieno[2,3-d]pyridazin-4-yl)-5-(trifluoromethyl)phenol], with 5.1 nM; and `Oc1cc(C(F)(F)F)ccc1-c1nnc(N[C@@H]2CCCN(C3CC3)C2)c2c1CSC2` [Example 126, 2-(4-{[(3R)-1-cyclopropylpiperidin-3-yl]amino}-5,7-dihydrothieno[3,4-d]pyridazin-1-yl)-5-(trifluoromethyl)phenol], with 7.1 nM. The value for `Oc1cc(OC(F)F)ccc1-c1nnc(N[C@@H]2CCCC[C@H]2O)c2c1CCCOC2` [Example 116] was 4.4 nM; that for `CN1CCc2c(-c3ccc(OC(F)(F)F)cc3O)nnc(N[C@@H]3CCCC[C@H]3O)c2C1` [Example 76] was 23 nM; that for `OCC12CC(Nc3nnc(-c4ccc(C(F)(F)F)cc4O)c4c3CCCC4)(C1)C2` [Example 40] was 50 nM. Then `C[C@]1(O)C[C@@H](Nc2nnc(-c3ccc(C(F)(F)F)cc3O)c3c2COCC3)C1` [56(1)], with 7 nM; and `Oc1cc(C(F)F)ccc1-c1nnc(N[C@@H]2CCC[C@H](O)C2)c2c1COC2` [Example 114, 5-(difluoromethyl)-2-(4-{[(1R,3S)-3-hydroxycyclohexyl]amino}-5,7-dihydrofuro[3,4-d]pyridazin-1-yl)phenol], with 15 nM; and `CN1CCC[C@@H](Nc2nnc(-c3ccc(Cl)cc3O)c3c2COCC3)C1` [Example 109], with 1.5 nM. For the compound `Cc1ccc(-c2nnc(N[C@@H]3CCCC[C@H]3O)c3c2CCCC3)c(O)c1` [Example 26], the IC50 is 15 nM.

For `Oc1cc(C2CC2)ccc1-c1nnc(N[C@@H]2CCCC[C@H]2O)c2c1CCCC2` [Example 51], the 50% inhibitory concentration (IC50) was found to be 13 nM.

With `CCN1CCc2c(-c3ccc(C(F)(F)F)cc3O)nnc(N[C@@H]3CCCC[C@H]3O)c2C1` [Example 78], the IC50 is 54 nM. Turning to `C[C@@H](O)CNc1nnc(-c2ccc(C(F)(F)F)cc2C(F)(F)F)c2c1CCC2` [Example 8], the IC50 came out at 210 nM. Regarding `O=S1(=O)CCc2c(N[C@@H]3CCCC[C@H]3O)nnc(-c3ccc(C(F)(F)F)cc3O)c2C1` [Example 130], the IC50 was found to be 22 nM. As for `Oc1cc(C(F)(F)F)ccc1-c1nnc(N[C@@H]2CCCC[C@H]2O)c2ccccc12` [Example 15], the IC50 was determined as 2.8 nM. For the compound `Oc1cc(C(F)(F)F)ccc1-c1nnc(N[C@@H]2CCCC[C@H]2O)c2c1COCCC2` [108(1)], the IC50 is 27 nM. Consider `Oc1cc(OC(F)(F)F)ccc1-c1nnc(N[C@@H]2CCCC[C@H]2O)c2c1CCOC2` [Example 135, 2-(4-{[(1R,2R)-2-hydroxycyclohexyl]amino}-7,8-dihydro-5H-pyrano[3,4-d]pyridazin-1-yl)-5-(trifluoromethoxy)phenol monohydrochloride], for which the half-inhibitory concentration (IC50) worked out at 2.9 nM.

As to `Oc1cc(C(F)(F)F)c(F)cc1-c1nnc(N[C@@H]2CCCC[C@H]2O)c2c1CCOC2` [Example 86], the IC50 is 11 nM. As to `C[C@]1(O)C[C@@H](Nc2nnc(-c3ccc(OC(F)(F)F)cc3O)c3c2CCOC3)C1` [57(2)], the half-inhibitory concentration (IC50) was 94 nM. Turning to `C[C@]1(O)C[C@@H](Nc2nnc(-c3ccc(OC(F)(F)F)cc3O)c3c2CCCC3)C1` [Example 32], the IC50 is 76 nM. The value for `Oc1cc(OC(F)(F)F)ccc1-c1nnc(N[C@@H]2CCOC[C@H]2O)c2c1CCCC2` [Example 37] was 18 nM; that for `CC(=O)NCCCCOc1nnc(-c2ccc(C(F)(F)F)cc2O)c2ccccc12` [Example 81, N-[4-({4-[2-hydroxy-4-(trifluoromethyl)phenyl]phthalazin-1-yl}oxy)butyl]acetamide] was 33 nM; that for `Oc1cc(C(F)(F)F)ccc1-c1nnc(N[C@@H]2CCOC[C@H]2O)c2c1CCOC2` [101(1)] was 2 nM. Take `Oc1cc(OC(F)(F)F)ccc1-c1nnc(N[C@@H]2CCCC[C@H]2O)c2c1CCOCC2` [Example 68]: the IC50 turned out to be 11 nM.

The values are drawn from US20250084092A1, “ANNULATED PYRIDAZINE COMPOUND” (Nico Therapeutics, Inc., priority 2021, published 2025).
